ChEMBL document CHEMBL3046607, “Synthesis and Herbicidal Activity of New 1-Alkyl-3-aryloxypyrazole-4-carboxamide Derivatives” (J Pestic Sci, 2004)
The source made the active and inactive calls. The rule behind the calls is not given here.

Key:
[1] = system: Schoenoplectiella juncoides; test: Pre-emergence herbicidal activity against Schoenoplectiella juncoides at 33 g a.i/ha measured after 14 days; type: functional, organism-based
Ammannia multiflora [2] = test: Pre-emergence herbicidal activity against Ammannia multiflora at 10 g a.i/ha measured after 14 days; type: functional, organism-based
Oryza sativa [3] = test: Phytotoxicity against Oryza sativa cv. Koshihikari (rice) at 10 g a.i/ha measured after 14 days; type: organism-based; settings: in vivo, 336 h
Elatine triandra [4] = test: Pre-emergence herbicidal activity against Elatine triandra at 33 g a.i/ha measured after 14 days; type: functional, organism-based
Elatine triandra [5] = test: Pre-emergence herbicidal activity against Elatine triandra assessed as bleaching of stem/leaf parts; type: functional, organism-based
Cyperus difformis [6] = test: Pre-emergence herbicidal activity against Cyperus difformis assessed as bleaching of stem/leaf parts; type: functional, organism-based
Oryza sativa [7] = test: Phytotoxicity against Oryza sativa cv. Koshihikari (rice) at 33 g a.i/ha measured after 14 days; type: organism-based; settings: in vivo, 336 h
Ammannia multiflora [8] = test: Pre-emergence herbicidal activity against Ammannia multiflora at 33 g a.i/ha measured after 14 days; type: functional, organism-based
Cyperus difformis [9] = test: Pre-emergence herbicidal activity against Cyperus difformis at 33 g a.i/ha measured after 14 days; type: functional, organism-based
[10] = system: Schoenoplectiella juncoides; test: Pre-emergence herbicidal activity against Schoenoplectiella juncoides at 10 g a.i/ha measured after 14 days; type: functional, organism-based
Lindernia procumbens [11] = test: Pre-emergence herbicidal activity against Lindernia procumbens at 10 g a.i/ha measured after 14 days; type: functional, organism-based
Pontederia vaginalis [12] = test: Pre-emergence herbicidal activity against Monochoria vaginalis at 33 g a.i/ha measured after 14 days; type: functional, organism-based
Pontederia vaginalis [13] = test: Pre-emergence herbicidal activity against Monochoria vaginalis at 1 0 g a.i/ha measured after 14 days; type: functional, organism-based
Echinochloa oryzicola [14] = test: Pre-emergence herbicidal activity against Echinochloa oryzicola at 33 g a.i/ha measured after 14 days; type: functional, organism-based
Rotala indica [15] = test: Pre-emergence herbicidal activity against Rotala indica at 10 g a.i/ha measured after 14 days; type: functional, organism-based
Elatine triandra [16] = test: Post-emergence herbicidal activity against Elatine triandra assessed as bleaching of stem/leaf parts; type: functional, organism-based; also: test concentration or dose not given here
Lindernia procumbens [17] = test: Pre-emergence herbicidal activity against Lindernia procumbens at 33 g a.i/ha measured after 14 days; type: functional, organism-based
Elatine triandra [18] = test: Pre-emergence herbicidal activity against Elatine triandra at 10 g a.i/ha measured after 14 days; type: functional, organism-based
Echinochloa oryzicola [19] = test: Pre-emergence herbicidal activity against Echinochloa oryzicola assessed as bleaching of stem/leaf parts; type: functional, organism-based
Rotala indica [20] = test: Pre-emergence herbicidal activity against Rotala indica assessed as bleaching of stem/leaf parts; type: functional, organism-based
Cyperus difformis [21] = test: Pre-emergence herbicidal activity against Cyperus difformis at 10 g a.i/ha measured after 14 days; type: functional, organism-based
[22] = system: Schoenoplectiella juncoides; test: Post-emergence herbicidal activity against Schoenoplectiella juncoides assessed as bleaching of stem/leaf parts; type: functional, organism-based; also: test concentration or dose not given here
Lindernia procumbens [23] = test: Pre-emergence herbicidal activity against Lindernia procumbens assessed as bleaching of stem/leaf parts; type: functional, organism-based
Cyperus difformis [24] = test: Post-emergence herbicidal activity against Cyperus difformis assessed as bleaching of stem/leaf parts; type: functional, organism-based; also: test concentration or dose not given here
[25] = system: Schoenoplectiella juncoides; test: Pre-emergence herbicidal activity against Schoenoplectiella juncoides assessed as bleaching of stem/leaf parts; type: functional, organism-based
Rotala indica [26] = test: Post-emergence herbicidal activity against Rotala indica assessed as bleaching of stem/leaf parts; type: functional, organism-based
Ammannia multiflora [27] = test: Post-emergence herbicidal activity against Ammannia multiflora assessed as bleaching of stem/leaf parts; type: functional, organism-based
Rotala indica [28] = test: Pre-emergence herbicidal activity against Rotala indica at 33 g a.i/ha measured after 14 days; type: functional, organism-based
Pontederia vaginalis [29] = test: Pre-emergence herbicidal activity against Monochoria vaginalis assessed as bleaching of stem/leaf parts; type: functional, organism-based
Echinochloa oryzicola [30] = test: Pre-emergence herbicidal activity against Echinochloa oryzicola at 10 g a.i/ha measured after 14 days; type: functional, organism-based
Pontederia vaginalis [31] = test: Post-emergence herbicidal activity against Monochoria vaginalis assessed as bleaching of stem/leaf parts; type: functional, organism-based
Ammannia multiflora [32] = test: Pre-emergence herbicidal activity against Ammannia multiflora assessed as bleaching of stem/leaf parts; type: functional, organism-based
Lindernia procumbens [33] = test: Post-emergence herbicidal activity against Lindernia procumbens assessed as bleaching of stem/leaf parts; type: functional, organism-based; also: test concentration or dose not given here
Echinochloa oryzicola [34] = test: Post-emergence herbicidal activity against Echinochloa oryzicola assessed as bleaching of stem/leaf parts; type: functional, organism-based

`Cn1cc(C(=O)Nc2ccc(F)cc2F)c(Oc2ccc(Cl)c(C(F)(F)F)c2)n1` was tested, and the Activity [1] was “Active”, the Activity (Ammannia multiflora [2]) was “Active” and the Activity (Oryza sativa [3]) was “Non-toxic”. The Activity (Elatine triandra [4]) was “Active”, the Activity (Elatine triandra [5]) was “Active” and the Activity (Cyperus difformis [6]) was “Active”. For the same compound, the Activity (Oryza sativa [7]) was “Non-toxic”, the Activity (Ammannia multiflora [8]) was “Active” and the Activity (Cyperus difformis [9]) was “Active”. For the same compound, the Activity [10] was “Active”, the Activity (Lindernia procumbens [11]) was “Active” and the Activity (Pontederia vaginalis [12]) was “Active”. For the same compound, the Activity (Pontederia vaginalis [13]) was “Active”, the Activity (Echinochloa oryzicola [14]) was “Active” and the Activity (Rotala indica [15]) was “Active”. For the same compound, the Activity (Elatine triandra [16]) was “Active”, the Activity (Lindernia procumbens [17]) was “Active” and the Activity (Elatine triandra [18]) was “Active”. For the same compound, the Activity (Echinochloa oryzicola [19]) was “Active”, the Activity (Rotala indica [20]) was “Active” and the Activity (Cyperus difformis [21]) was “Active”. The Activity [22] was “Active”, the Activity (Lindernia procumbens [23]) was “Active” and the Activity (Cyperus difformis [24]) was “Active”. The Activity [25] was “Active”, the Activity (Rotala indica [26]) was “Active” and the Activity (Ammannia multiflora [27]) was “Active”. For the same compound, the Activity (Rotala indica [28]) was “Active”, the Activity (Pontederia vaginalis [29]) was “Active” and the Activity (Echinochloa oryzicola [30]) was “inactive”. For the same compound, the Activity (Pontederia vaginalis [31]) was “Active”, the Activity (Ammannia multiflora [32]) was “Active” and the Activity (Lindernia procumbens [33]) was “Active”. For the same compound, the Activity (Echinochloa oryzicola [34]) was “Active”.
